This is an account of results in patent US20090270306A1, “Glass Storage” (priority 2005, published 2009).

Where two headings read alike, the source gives them in different places.

For data set [1] the following is noted: initial pKa, cited from earlier work.
Data set [2] in a line: pH behaviour on addition of sodium hydroxide (FIG. 1). It counts as physicochemical. Conditions: 0.2 g in 200 ml water, 0.1M sodium hydroxide added; during almost the entire addition.
The conditions of data set [3]: 1% solution in water.
Where [4] appears, read: other suitable buffer compounds (Table 3).
[5] abbreviates: buffers tested for stain inhibitor performance (Table 1).

Broadly, the pKa is the negative logarithm of the acid dissociation constant. Consider `O=S(=O)(O)CC(O)CN1CCN(CC(O)CS(=O)(=O)O)CC1` (stereo not drawn) [POPSO, piperazine-N-N′-bis (2-hydroxypropanesulphonic acid)], for which the pKa in data set [1] (setting [4]) was 7.8.

As to `O=S(=O)(O)CCCNC(CO)(CO)CO` [TAPS, N-[tris(hydroxymethyl)methyl]-3-aminopropanesulphonic acid], the pKa in data set [1] (setting [5]) is given as 8.4.

For `O=C(O)CCCCC(=O)O` [adipic acid], in data set [2], the “pH during addition of alkali” value was less than 5. Further, in data set [3], the pH of solution came out at 2.8.

In the case of `O=S(=O)(O)CCNC1CCCCC1` [CHES, 2-(cyclohexylamino) ethanesulphonic acid], the pKa in data set [1] (setting [4]) was 9.5.

In the case of `O=C(O)CNC(CO)(CO)CO` [Tricine, N-[tris (hydroxymethyl)methy] glycine], in data set [1] (setting [5]), the pKa is 8.2.
